Assay results: patent EP0335369A2, “New anthracycline derivatives and processes for the preparation of the same” (priority 1988, dated 1989)
≈ marks a conversion by molar mass, not a printed value. Read-outs that look alike come from different tables or passages of the source.

What was measured:
Leukemia L-1210 cells [1] = experiment: Test 1: antitumor activity against leukemia induced in CDF1 mice by Leukemia L-1210 cells (life-span increase); assay type: in vivo; conditions: intraperitoneally once per day for 9 consecutive days, observation 60 days
Procedure: Antitumor activities against leukemia in CDF, mice as induced by mouse leukemia, Leukemia L-1210 cells
After an elapsed time of 24 hours, a compounds of the formula (I) of this invention to be tested was administered intraperitoneally for 9 consecutive days once per day. Observation was made for 60 days, where survival days of each mouse tested were recorded. In comparison with the control test wherein mice were treated with the administration of physiological saline alone, the increase (%) in the life-span of the treated mice was calculated as T/C %, where T is the mean survival days of the treated animals and C is the mean survival days of the untreated control animals. For the comparison, daunomycin and adriamycin were also tested in the same manner.

[2] = Solubility in phosphate buffer solution of pH 7.4 at room temperature; assay type: physicochemical; conditions: for solubility: room temperature
[3] = test system: mouse leukemia P 388/S (sensitive); experiment: Test 2: growth inhibition of cultured mouse leukemia cells, 72 hours incubation; assay type: cell-based; conditions: P 388/S cells
Procedure: (§1) 7-O-(2,6-Dideoxy-2-fluoro-«-L-mannopyranosyl)adriamycinone 14-O-hemipimelate, which is a compounds according to this invention, was then added at varying concentrations. The incubation of the cells was thereafter continued for 72 hours to measure the 50% inhibitory concentration (ICso, ng/m t) of the test compound against the growth of the tunmor cells.

P388/ADR (resistant) = experiment: as above; assay type: cell-based; conditions: P 388/ADR cells
Procedure: as §1

Leukemia L-1210 cells [4] = experiment: Test 3: antitumor activity against leukemia induced in CDF1 mice by Leukemia L-1210 cells (procedure of Test 1 repeated); assay type: in vivo; conditions: intraperitoneally once per day for 9 consecutive days, observation 60 days
Procedure: Antitumor activities against leukemia in CDF1 mice as induced by mouse leukemia, Leukemia L-1210 cells
To evaluate the antitumor effects of the compounds of the formula (I') according to the sixth aspect of this invention against experimental tumors in animals, the procedure of Test 1 given hereinbefore is repeated. Thus, CDF1 mice were intraperitoneally transplanted with cells of Leukemia L-1210 (at a dose of 1 x 10^5 cells/mouse). After an elapsed time of 24 hours from the tumor transplantation, a test compound of the formula (I') of the sixth aspect invention to be evaluated was administered intraperitoneally for 9 consecutive days once per day. Observation was made for 60 day, where survival days of each mouse tested were recorded. In comparison with the control test wherein mice were treated with the administration of physiological saline alone, the increase (%) in the life-span of the treated mice was calculated as T/C %, where T is the mean survival days of the treated animals and C is the mean survival days of the untreated control animals. For the comparison, daunomycin and adriamycin were also tested in the same manner.

[5] = aqueous buffer, compounds (Ic), phosphate buffer solution of pH 7.4 (0.05 M KH2PO4-NaOH), read-out: Solubility

Row | Compound | % Increase in life-span (T/C, %) (Leukemia L-1210 cells [1]; Dose 0.15 mg/kg/day) | % Increase in life-span (T/C, %) (Leukemia L-1210 cells [1]; Dose 0.3 mg/kg/day) | % Increase in life-span (T/C, %) (Leukemia L-1210 cells [1]; Dose 0.6 mg/kg/day) | % Increase in life-span (T/C, %) (Leukemia L-1210 cells [1]; Dose 1.25 mg/kg/day) | solubility [2, 5] | % Increase in life-span (T/C, %) (Leukemia L-1210 cells [4]; Dose 0.04 mg/kg/day) | % Increase in life-span (T/C, %) (Leukemia L-1210 cells [4]; Dose 0.08 mg/kg/day) | % Increase in life-span (T/C, %) (Leukemia L-1210 cells [4]; Dose 0.15 mg/kg/day) | % Increase in life-span (T/C, %) (Leukemia L-1210 cells [4]; Dose 0.3 mg/kg/day) | % Increase in life-span (T/C, %) (Leukemia L-1210 cells [4]; Dose 0.6 mg/kg/day) | % Increase in life-span (T/C, %) (Leukemia L-1210 cells [4]; Dose 1.25 mg/kg/day) | further results
1 | C[C@@H]1O[C@@H](O[C@H]2C[C@](O)(C(=O)COC(=O)CCCCCC(=O)O)Cc3c(O)c4c(c(O)c32)C(=O)c2ccccc2C4=O)[C@H](F)[C@H](O)[C@H]1O [Example 11, 7-O-(2,6-dideoxy-2-fluoro-a-L-mannopyranosyl)-4-demethoxyadriamycinone 14-0-hemipimelate] | 121% | >363% | 175% | 111% | < 1000 µg/mL | – | – | – | – | – | – | –
2 | COc1cccc2c1C(=O)c1c(O)c3c(c(O)c1C2=O)C[C@@](O)(C(=O)COC(=O)CCCCCC(=O)O)C[C@@H]3O[C@@H]1O[C@@H](C)[C@H](O)[C@@H](O)[C@H]1F [Example 9] | 123% | 274% | >329% | >346% | 32000 µg/mL (≈ 45400 µM) | – | – | – | – | – | – | IC50 ([3]; Mus musculus, P388/S, read-out: IC50 (ng/mℓ) P 388/S): 0.3 ng/mL (≈ 0.000426 µM); IC50 (P388/ADR (resistant); Mus musculus, P388/ADR, read-out: IC50 (ng/mℓ) P 388/ADR): 39.8 ng/mL (≈ 0.0565 µM); % Increase in life-span (T/C, %) (Leukemia L-1210 cells [1]; Dose 2.5 mg/kg/day): >686%; % Increase in life-span (T/C, %) (Leukemia L-1210 cells [1]; Dose 5 mg/kg/day): >463%
3 | 4-demethoxy-7-O-(2,6-dideoxy-2-fluoro-α-L-talopyranosyl)adriamycinone 14-0-hemisuberate [Example 19] | – | – | – | – | – | 93% | 96% | 138% | 175% | 245% | 158% | solubility ([2]; compounds (I'-c) or (I'-d), phosphate buffer solution of pH 7.4 (0.05M KH2PO4-NaOH)): <1000 µg/mL; solubility in the phosphate buffer solution (in words) ([2]; phosphate buffer solution (0.05 M KH2PO4-NaOH) at pH 7.4): scarcely soluble
4 | C[C@@H]1O[C@@H](O[C@H]2C[C@](O)(C(=O)COC(=O)CCCCC(=O)O)Cc3c(O)c4c(c(O)c32)C(=O)c2ccccc2C4=O)[C@H](F)[C@H](O)[C@@H]1O [Example 17, 4-demethoxy-7-O-(2,6-dideoxy-2-fluoro-α-L-talopyranosyl)adriamycinone 14-0-hemiadipate] | – | – | – | – | – | 99% | 99% | 130% | 166% | 242% | > 296% | solubility ([2]; aqueous buffer, compounds (I'-c) or (I'-d), phosphate buffer solution of pH 7.4 (0.05M KH2PO4-NaOH), read-out: Solubility): 6000 µg/mL (≈ 9080 µM)
5 | COc1cccc2c1C(=O)c1c(O)c3c(c(O)c1C2=O)C[C@@](O)(C(=O)COC(=O)CCCCCC(=O)O)C[C@@H]3O[C@@H]1O[C@@H](C)[C@@H](O)[C@@H](O)[C@H]1F [Referential compound, 7-O-(2,6-dideoxy-2-fluoro-«-L-talopyranosyl)-adriamycinone 14-0-hemipimelate, reference compound] | – | – | – | – | – | – | – | – | – | – | – | IC50 (ng/mℓ) P 388/S [3]: 3.3 ng/mL (≈ 0.00468 µM); IC50 (ng/mℓ) P 388/ADR (P388/ADR (resistant)): 485 ng/mL (≈ 0.688 µM)
